Assay results as given in the supplement of paper PMC10331698.
± gives the standard deviation of the averaged measurements.

Experiments:
Assay in all cases: level (log10 ratio to DMSO vehicle control); higher = higher biomarker level / cell amount than vehicle control
Details in all cases: in DMSO
[1] = compound: FC(F)(F)C(F)(F)C(F)(F)C(F)(F)C(F)(F)C(F)(F)C(F)(F)I [1-Iodopentadecafluoroheptane]
Experimental: (§1)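 BioMAP Diversity Plus panel of 12 human primary cell co-culture systems (3C, 4H, LPS, SAg, BT, BF4T, BE3C, CASM3C, HDF3CGF, KF3CT, MyoF, Mphg). Compounds were added 1 h before stimulation and left for 24 h (MyoF 48 h; BT 72 h for soluble read-outs or 6 d for IgG). Biomarkers were read by ELISA, cytotoxicity by SRB, PBMC viability and proliferation by Alamar Blue. Each well value was divided by the mean of 8 DMSO control wells on the same plate and log10 transformed; duplicate blinded samples were tested at 4 concentrations.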

[2] = compound: O=S(=O)(Cl)C(F)(F)C(F)(F)C(F)(F)C(F)(F)C(F)(F)C(F)(F)C(F)(F)C(F)(F)F [Perfluoro-1-octanesulfonyl chloride]
Experimental: as §1

[3] = compound: O=S(=O)(O)C(F)(F)C(F)(F)C(F)(F)C(F)(F)C(F)(F)C(F)(F)C(F)(F)C(F)(F)C(F)(F)C(F)(F)F [Sodium perfluorodecanesulfonate]
Experimental: as §1

[4] = compound: FC(F)(F)C(F)(F)C(F)(F)CC1CO1 [1H,1H-Heptafluorobutyl epoxide]
Experimental: as §1

[5] = compound: O=S(=O)(F)C(F)(F)C(F)(F)C(F)(F)C(F)(F)C(F)(F)C(F)(F)C(F)(F)C(F)(F)F [Perfluorooctanesulfonyl fluoride]
Experimental: as §1

Row | Test System | level (log10) ([1]; 6700 nM) | level (log10) ([1]; 20000 nM) | level (log10) ([2]; 6700 nM) | level (log10) ([2]; 20000 nM) | level (log10) ([2]; 60000 nM) | level (log10) ([3]; 1500 nM) | level (log10) ([3]; 4400 nM) | level (log10) ([3]; 13000 nM) | level (log10) ([3]; 40000 nM) | level (log10) ([4]; 6700 nM) | level (log10) ([4]; 20000 nM) | level (log10) ([4]; 60000 nM) | level (log10) ([5]; 6700 nM) | level (log10) ([5]; 20000 nM) | level (log10) ([5]; 60000 nM)
1 | BE3C:MMP-1 | -0.0205 ± 0.0078 | -0.011 | 0.075 ± 0.03 | 0.27 ± 0.012 | -0.178 ± 0.047 | -0.0225 ± 0.053 | 0.0585 ± 0.059 | 0.239 ± 0.011 | 0.153 ± 0.0071 | 0.003 ± 0.027 | 0.002 ± 0.055 | 0.041 ± 0.092 | -0.0045 ± 0.00071 | -0.001 ± 0.014 | -0.0005 ± 0.013
2 | BE3C:PAI-I | -0.0185 ± 0.047 | -0.0245 ± 0.037 | 0.0265 ± 0.011 | 0.0055 ± 0.019 | -0.416 ± 0.054 | -0.0925 ± 0.036 | -0.106 ± 0.022 | -0.26 ± 0.058 | -0.406 ± 0.013 | 0.0035 ± 0.0092 | 0.0075 ± 0.005 | 0.0165 ± 0.025 | -0.021 ± 0.0099 | -0.022 ± 0.052 | -0.0135 ± 0.056
3 | BE3C:SRB | 0.0095 ± 0.00071 | 0.0085 ± 0.0035 | -0.001 ± 0.0014 | -0.049 ± 0.0057 | -0.659 ± 0.019 | 0.0005 ± 0.0021 | 0 ± 0.0014 | -0.0555 ± 0.028 | -0.368 ± 0.069 | -0.0035 ± 0.00071 | 0.0015 ± 0.00071 | 0.007 | -0.003 ± 0.0014 | 0.0005 ± 0.005 | 0.0045 ± 0.021
4 | BE3C:tPA | -0.006 ± 0.0042 | 0.0075 ± 0.022 | 0.01 ± 0.047 | 0 ± 0.04 | -0.359 ± 0.11 | 0.12 ± 0.017 | 0.186 ± 0.0028 | 0.191 ± 0.013 | -0.103 ± 0.0057 | -0.0115 ± 0.06 | -0.0245 ± 0.03 | -0.0375 ± 0.026 | -0.045 ± 0.075 | -0.027 ± 0.034 | -0.027 ± 0.027
5 | BE3C:uPA | -0.0135 ± 0.0035 | -0.009 ± 0.0099 | -0.006 ± 0.0028 | 0.0085 ± 0.0064 | -0.133 ± 0.059 | -0.027 ± 0.0057 | -0.032 ± 0.034 | -0.019 ± 0.017 | -0.051 ± 0.027 | -0.022 ± 0.014 | -0.004 ± 0.0042 | -0.0065 ± 0.00071 | 0.0045 ± 0.0021 | -0.011 ± 0.0057 | 0.004 ± 0.014
6 | CASM3C:CCL2/MCP-1 | -0.01 ± 0.0042 | 0.005 ± 0.018 | -0.0025 ± 0.0078 | -0.0115 ± 0.0092 | 0.031 ± 0.044 | -0.022 ± 0.023 | -0.024 ± 0.0028 | 0.0115 ± 0.026 | 0.0095 ± 0.0064 | -0.007 ± 0.023 | -0.0275 ± 0.00071 | 0.004 ± 0.014 | -0.004 ± 0.014 | -0.0035 ± 0.005 | 0.0055 ± 0.03
7 | CASM3C:CD87/uPAR | -0.019 ± 0.031 | -0.0195 ± 0.018 | -0.0235 ± 0.054 | -0.0285 ± 0.054 | -0.0155 ± 0.069 | 0.0455 ± 0.021 | -0.0065 ± 0.03 | 0.042 ± 0.0042 | 0.0075 ± 0.015 | -0.023 ± 0.0057 | -0.017 ± 0.035 | -0.019 ± 0.017 | 0.0105 ± 0.0035 | 0.0065 ± 0.005 | 0.0225 ± 0.012
8 | CASM3C:CD106/VCAM-1 | -0.0125 ± 0.005 | -0.019 ± 0.034 | -0.0395 ± 0.0092 | -0.0455 ± 0.015 | -0.0235 ± 0.032 | -0.043 ± 0.037 | -0.0795 ± 0.026 | -0.158 ± 0.037 | -0.153 ± 0.045 | -0.015 ± 0.035 | -0.031 ± 0.014 | 0.0055 ± 0.013 | 0.0015 ± 0.032 | 0.0035 ± 0.05 | -0.008 ± 0.0085
9 | CASM3C:CD141/Thrombomodulin | -0.0595 ± 0.021 | -0.0445 ± 0.021 | -0.019 ± 0.011 | 0.012 ± 0.017 | 0.03 ± 0.0071 | 0.0625 ± 0.015 | 0.034 ± 0.0028 | 0.03 ± 0.038 | 0.166 ± 0.0092 | -0.0145 ± 0.047 | -0.0265 ± 0.018 | 0.001 ± 0.035 | -0.004 ± 0.0042 | -0.01 ± 0.0014 | -0.0075 ± 0.005
10 | CASM3C:CD142/Tissue Factor | -0.0185 ± 0.016 | -0.043 ± 0.024 | -0.0095 ± 0.04 | -0.0455 ± 0.037 | -0.0595 ± 0.032 | 0.044 ± 0.025 | -0.0045 ± 0.021 | 0.0295 ± 0.036 | 0.082 ± 0.016 | -0.0165 ± 0.016 | -0.037 ± 0.027 | -0.039 ± 0.02 | 0.018 ± 0.0014 | 0.0095 ± 0.0035 | 0.0025 ± 0.005
11 | CASM3C:CXCL8/IL-8 | -0.0165 ± 0.016 | 0.001 ± 0.017 | -0.021 ± 0.0057 | -0.0125 ± 0.013 | 0.015 ± 0.035 | 0.025 ± 0.016 | 0.01 ± 0.037 | 0.03 ± 0.021 | 0.064 ± 0.034 | 0 ± 0.017 | 0.0005 ± 0.0078 | -0.0035 ± 0.00071 | 0.0025 ± 0.00071 | -0.0035 ± 0.0035 | 0.0035 ± 0.016
12 | CASM3C:CXCL9/MIG | -0.0165 ± 0.025 | 0.018 ± 0.018 | 0.0015 ± 0.052 | 0.013 ± 0.035 | 0.0735 ± 0.033 | 0.0195 ± 0.036 | -0.0105 ± 0.011 | 0.0285 ± 0.043 | 0.0875 ± 0.043 | -0.01 ± 0.011 | -0.0145 ± 0.023 | 0.004 ± 0.013 | -0.0025 ± 0.00071 | 0.001 ± 0.0057 | 0.0075 ± 0.011
13 | CASM3C:HLA-DR | -0.0255 ± 0.023 | 0.008 ± 0.023 | -0.022 ± 0.014 | -0.053 ± 0.017 | -0.04 ± 0.064 | 0.0555 ± 0.047 | 0.007 ± 0.024 | 0.0505 ± 0.036 | 0.0855 ± 0.0035 | -0.014 ± 0.0099 | -0.017 ± 0.0028 | -0.0165 ± 0.016 | 0.0065 ± 0.022 | -0.0035 ± 0.0092 | 0.008 ± 0.0057
14 | CASM3C:IL-6 | -0.0425 ± 0.026 | -0.0035 ± 0.053 | -0.009 ± 0.03 | -0.024 ± 0.02 | 0.015 ± 0.044 | -0.013 ± 0.018 | -0.053 ± 0.05 | 0.055 ± 0.0099 | 0.108 ± 0.018 | -0.0235 ± 0.022 | -0.012 ± 0.0099 | 0.009 ± 0.047 | -0.014 ± 0.02 | -0.008 ± 0.0071 | -0.0125 ± 0.061
15 | CASM3C:LDLR | -0.002 ± 0.013 | -0.014 | -0.0105 ± 0.005 | -0.011 ± 0.017 | 0.0095 ± 0.037 | 0.0155 ± 0.028 | -0.015 | -0.0425 ± 0.018 | -0.0055 ± 0.035 | -0.007 ± 0.0028 | -0.015 ± 0.0057 | 0.002 ± 0.0099 | 0.0035 ± 0.0021 | 0.0015 ± 0.012 | 0.0055 ± 0.023
16 | CASM3C:M-CSF | -0.0285 ± 0.019 | 0.0225 ± 0.052 | 0.008 ± 0.014 | 0.0095 ± 0.018 | 0.0425 ± 0.005 | 0.0465 ± 0.0064 | 0.0285 ± 0.0035 | 0.03 ± 0.014 | 0.14 ± 0.079 | -0.0205 ± 0.029 | -0.015 ± 0.0042 | -0.014 ± 0.033 | 0.0005 ± 0.013 | -0.0185 ± 0.028 | 0.0085 ± 0.021
17 | CASM3C:PAI-I | -0.013 ± 0.011 | 0.0075 ± 0.011 | -0.003 ± 0.0028 | -0.0095 ± 0.00071 | 0.0005 ± 0.011 | -0.001 ± 0.0028 | -0.0165 ± 0.0064 | 0.009 ± 0.0057 | -0.0055 ± 0.021 | -0.0045 ± 0.0092 | 0 ± 0.0057 | 0.005 ± 0.017 | 0.005 ± 0.0071 | -0.005 ± 0.0028 | 0.0045 ± 0.0035
18 | CASM3C:SRB | -0.0025 ± 0.0092 | 0.007 | 0.0075 ± 0.00071 | 0.0045 ± 0.0078 | 0.014 ± 0.0042 | -0.0035 ± 0.011 | -0.005 ± 0.0085 | 0 ± 0.0028 | -0.007 ± 0.0085 | -0.006 ± 0.014 | 0.0055 ± 0.0035 | -0.0035 ± 0.005 | 0.002 ± 0.0014 | -0.006 ± 0.0071 | -0.0015 ± 0.0021
19 | CASM3C:Serum Amyloid A | -0.035 | 0.008 ± 0.024 | -0.008 ± 0.011 | -0.0165 ± 0.005 | 0.016 ± 0.025 | -0.0545 ± 0.022 | -0.0135 ± 0.011 | 0.0365 ± 0.036 | 0.182 ± 0.028 | 0.0025 ± 0.012 | 0.003 ± 0.035 | 0.032 ± 0.061 | 0.0225 ± 0.0092 | 0.0245 ± 0.0078 | 0.0185 ± 0.011
